{"source": "ChEMBL document CHEMBL3392959", "about": "“Iminosugars as a new class of cholinesterase inhibitors” (Bioorg Med Chem Lett, 2015)", "key": {"Acetylcholinesterase [1]": {"biological_target": "T1, Acetylcholinesterase (Homo sapiens, UniProt P22303)", "T1 sequence (P22303 whole entry)": "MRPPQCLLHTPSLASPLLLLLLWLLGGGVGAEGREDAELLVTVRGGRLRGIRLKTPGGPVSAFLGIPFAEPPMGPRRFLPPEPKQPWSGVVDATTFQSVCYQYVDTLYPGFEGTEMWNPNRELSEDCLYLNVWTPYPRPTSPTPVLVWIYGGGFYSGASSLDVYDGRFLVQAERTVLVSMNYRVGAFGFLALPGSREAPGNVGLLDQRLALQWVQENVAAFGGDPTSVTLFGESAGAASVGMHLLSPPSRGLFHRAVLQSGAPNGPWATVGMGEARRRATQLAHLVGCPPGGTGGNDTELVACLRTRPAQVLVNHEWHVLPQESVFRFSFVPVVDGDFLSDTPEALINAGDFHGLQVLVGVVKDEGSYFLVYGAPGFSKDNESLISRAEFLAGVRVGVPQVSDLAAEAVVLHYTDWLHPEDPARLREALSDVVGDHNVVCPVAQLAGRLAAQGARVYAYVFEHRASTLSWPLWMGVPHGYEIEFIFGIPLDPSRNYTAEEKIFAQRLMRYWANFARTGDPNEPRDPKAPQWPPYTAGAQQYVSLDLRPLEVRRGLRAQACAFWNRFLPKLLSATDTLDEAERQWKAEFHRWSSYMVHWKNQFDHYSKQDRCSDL", "assay": "Inhibition of human recombinant AchE using acetylthiocholine iodide as substrate at 250 uM by Ellman method"}, "[2]": {"biological_target": "Acetylcholinesterase (Electrophorus electricus) (UniProt O42275)", "sequence (O42275 24-633 limits assumed)": "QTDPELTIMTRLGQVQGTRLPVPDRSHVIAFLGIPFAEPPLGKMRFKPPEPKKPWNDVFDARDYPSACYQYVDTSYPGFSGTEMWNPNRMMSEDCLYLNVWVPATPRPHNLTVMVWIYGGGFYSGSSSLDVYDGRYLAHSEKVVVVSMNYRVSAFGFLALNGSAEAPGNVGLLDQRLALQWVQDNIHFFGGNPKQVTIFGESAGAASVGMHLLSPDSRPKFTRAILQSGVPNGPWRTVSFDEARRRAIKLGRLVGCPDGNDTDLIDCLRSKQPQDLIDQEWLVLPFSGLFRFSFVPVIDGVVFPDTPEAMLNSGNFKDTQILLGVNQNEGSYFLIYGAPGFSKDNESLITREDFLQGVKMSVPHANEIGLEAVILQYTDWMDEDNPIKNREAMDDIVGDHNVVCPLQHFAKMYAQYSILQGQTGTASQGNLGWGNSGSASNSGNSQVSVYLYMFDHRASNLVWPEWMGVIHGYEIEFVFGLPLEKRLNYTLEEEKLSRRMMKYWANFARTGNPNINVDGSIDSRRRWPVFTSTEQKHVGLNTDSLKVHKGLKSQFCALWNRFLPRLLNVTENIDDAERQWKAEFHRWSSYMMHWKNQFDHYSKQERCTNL", "assay": "Inhibition of electric eel AchE using acetylthiocholine iodide as substrate at 250 uM by Ellman method"}, "Cholinesterase [3]": {"biological_target": "T2, Cholinesterase (Homo sapiens, UniProt P06276)", "T2 sequence (P06276 whole entry)": "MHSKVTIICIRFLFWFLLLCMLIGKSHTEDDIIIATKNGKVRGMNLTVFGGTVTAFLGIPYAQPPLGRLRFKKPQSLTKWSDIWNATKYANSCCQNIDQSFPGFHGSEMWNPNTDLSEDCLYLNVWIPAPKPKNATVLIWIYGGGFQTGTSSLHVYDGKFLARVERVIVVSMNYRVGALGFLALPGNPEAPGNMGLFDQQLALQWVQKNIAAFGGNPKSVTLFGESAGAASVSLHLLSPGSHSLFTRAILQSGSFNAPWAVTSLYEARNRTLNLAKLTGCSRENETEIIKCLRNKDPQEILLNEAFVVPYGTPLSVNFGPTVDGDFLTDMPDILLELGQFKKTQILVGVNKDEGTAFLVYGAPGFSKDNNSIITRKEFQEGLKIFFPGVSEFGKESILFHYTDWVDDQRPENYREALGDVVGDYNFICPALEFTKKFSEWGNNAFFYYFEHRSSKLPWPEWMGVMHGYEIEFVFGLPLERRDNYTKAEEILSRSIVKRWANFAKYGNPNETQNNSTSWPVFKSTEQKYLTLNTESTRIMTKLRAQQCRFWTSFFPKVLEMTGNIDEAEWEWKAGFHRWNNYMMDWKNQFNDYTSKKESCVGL", "assay": "Inhibition of human recombinant serum BuchE using butyrylthiocholine iodide as substrate at 250 uM by Ellman method"}, "Cholinesterase [4]": {"biological_target": "T2, Cholinesterase", "description": "Inhibition of human recombinant serum BuchE using butyrylthiocholine iodide as substrate by Ellman method"}, "Acetylcholinesterase [5]": {"biological_target": "T1, Acetylcholinesterase", "description": "Inhibition of human recombinant AchE using acetylthiocholine iodide as substrate by Ellman method"}, "Acetylcholinesterase [6]": {"biological_target": "Acetylcholinesterase (Electrophorus electricus, UniProt O42275)", "sequence (O42275 whole entry)": "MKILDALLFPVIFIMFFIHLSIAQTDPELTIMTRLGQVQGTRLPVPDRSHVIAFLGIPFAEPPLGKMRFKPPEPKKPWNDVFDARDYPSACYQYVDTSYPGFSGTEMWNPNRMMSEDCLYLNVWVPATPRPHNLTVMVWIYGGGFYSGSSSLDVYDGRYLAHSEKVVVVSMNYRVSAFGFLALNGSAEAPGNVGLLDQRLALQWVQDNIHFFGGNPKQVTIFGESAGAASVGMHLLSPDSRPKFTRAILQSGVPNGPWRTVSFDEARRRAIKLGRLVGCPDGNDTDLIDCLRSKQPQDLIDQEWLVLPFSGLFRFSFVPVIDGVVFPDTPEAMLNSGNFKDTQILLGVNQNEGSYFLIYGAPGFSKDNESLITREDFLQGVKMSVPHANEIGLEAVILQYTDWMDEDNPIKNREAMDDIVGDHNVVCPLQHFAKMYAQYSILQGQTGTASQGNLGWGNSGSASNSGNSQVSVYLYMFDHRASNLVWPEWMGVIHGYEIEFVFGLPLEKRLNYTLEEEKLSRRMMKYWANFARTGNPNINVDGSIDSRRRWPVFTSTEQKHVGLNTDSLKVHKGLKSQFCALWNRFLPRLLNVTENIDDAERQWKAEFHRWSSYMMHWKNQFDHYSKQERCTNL", "assay": "Inhibition of electric eel AchE using acetylthiocholine iodide as substrate by Ellman method"}}, "note": "pIC50: −log10 of the molar value. Active and inactive are the calls of the source. The rule behind the calls is not given here.", "data": [{"smiles": "CCCCCCO[C@H]1CNC[C@@H](O)[C@@H]1O", "values": [{"measurement": "inhibition", "setting": "Acetylcholinesterase [1]", "value": "inactive"}, {"measurement": "inhibition", "setting": "[2]", "value": "inactive"}, {"measurement": "inhibition", "setting": "Cholinesterase [3]", "value": "inactive"}]}, {"smiles": "C=CC[C@H]1NC[C@@H](O)[C@H](OCc2ccccc2)[C@H]1O", "values": [{"measurement": "inhibition", "setting": "Acetylcholinesterase [1]", "value": "< 50", "unit": "%"}, {"measurement": "inhibition", "setting": "[2]", "value": "< 50", "unit": "%"}, {"measurement": "pIC50", "setting": "Cholinesterase [4]", "value": 4.21}]}, {"smiles": "C[Si](C)(C)CCCn1cc(C[C@H]2NC[C@@H](O)[C@H](O)[C@H]2O)nn1", "values": [{"measurement": "inhibition", "setting": "Acetylcholinesterase [1]", "value": "inactive"}, {"measurement": "inhibition", "setting": "[2]", "value": "inactive"}, {"measurement": "inhibition", "setting": "Cholinesterase [3]", "value": "inactive"}]}, {"smiles": "C=CC[C@H]1NC[C@@H](O)[C@H](O)[C@H]1O", "values": [{"measurement": "inhibition", "setting": "Acetylcholinesterase [1]", "value": "inactive"}, {"measurement": "inhibition", "setting": "[2]", "value": "inactive"}, {"measurement": "inhibition", "setting": "Cholinesterase [3]", "value": "inactive"}]}, {"smiles": "O[C@@H]1[C@@H](O)[C@@H](Cc2cn(Cc3ccccc3)nn2)NC[C@H]1O", "values": [{"measurement": "inhibition", "setting": "Acetylcholinesterase [1]", "value": "inactive"}, {"measurement": "inhibition", "setting": "[2]", "value": "inactive"}, {"measurement": "inhibition", "setting": "Cholinesterase [3]", "value": "inactive"}]}, {"smiles": "CCCCCCCCN1C[C@@H](O)[C@H](O)[C@@H](O)[C@H]1CCC", "values": [{"measurement": "inhibition", "setting": "Acetylcholinesterase [1]", "value": "inactive"}, {"measurement": "inhibition", "setting": "[2]", "value": "inactive"}, {"measurement": "inhibition", "setting": "Cholinesterase [3]", "value": "inactive"}]}, {"smiles": "CCCCCCCCC[C@H]1NC[C@@H](O)[C@H](O)[C@H]1O", "values": [{"measurement": "inhibition", "setting": "Acetylcholinesterase [1]", "value": "inactive"}, {"measurement": "inhibition", "setting": "[2]", "value": "inactive"}, {"measurement": "inhibition", "setting": "Cholinesterase [3]", "value": "inactive"}]}, {"smiles": "CCCc1cn(CCCCCCN2C[C@H](O)[C@@H](O)[C@H](O)[C@H]2CO)nn1", "values": [{"measurement": "inhibition", "setting": "Acetylcholinesterase [1]", "value": "inactive"}, {"measurement": "inhibition", "setting": "[2]", "value": "inactive"}, {"measurement": "inhibition", "setting": "Cholinesterase [3]", "value": "inactive"}]}, {"smiles": "CCCCCC[C@H]1NC[C@@H](O)[C@H](O)[C@H]1O", "values": [{"measurement": "inhibition", "setting": "Acetylcholinesterase [1]", "value": "inactive"}, {"measurement": "inhibition", "setting": "[2]", "value": "inactive"}, {"measurement": "inhibition", "setting": "Cholinesterase [3]", "value": "inactive"}]}, {"smiles": "CCCCN1C[C@@H](O)[C@H](O)[C@@H](O)[C@H]1CCC", "values": [{"measurement": "inhibition", "setting": "Acetylcholinesterase [1]", "value": "inactive"}, {"measurement": "inhibition", "setting": "[2]", "value": "inactive"}, {"measurement": "inhibition", "setting": "Cholinesterase [3]", "value": "inactive"}]}, {"smiles": "C#CC[C@H]1NC[C@@H](O)[C@H](O)[C@H]1OCc1ccccc1", "values": [{"measurement": "inhibition", "setting": "Acetylcholinesterase [1]", "value": "inactive"}, {"measurement": "inhibition", "setting": "[2]", "value": "inactive"}, {"measurement": "inhibition", "setting": "Cholinesterase [3]", "value": "inactive"}]}, {"smiles": "O[C@@H]1[C@@H](OCc2ccccc2)[C@@H](Cc2cn(Cc3ccccc3)nn2)NC[C@H]1O", "values": [{"measurement": "inhibition", "setting": "Acetylcholinesterase [1]", "value": "< 50", "unit": "%"}, {"measurement": "inhibition", "setting": "[2]", "value": "< 50", "unit": "%"}, {"measurement": "pIC50", "setting": "Cholinesterase [4]", "value": 5.15}]}, {"smiles": "O[C@@H]1[C@@H](O)[C@@H](Cc2cn(Cc3cc(OCc4ccccc4)cc(OCc4ccccc4)c3)nn2)NC[C@H]1O", "values": [{"measurement": "inhibition", "setting": "Acetylcholinesterase [1]", "value": "< 50", "unit": "%"}, {"measurement": "inhibition", "setting": "[2]", "value": "< 50", "unit": "%"}, {"measurement": "pIC50", "setting": "Cholinesterase [4]", "value": 5.92}]}, {"smiles": "C=CC[C@@H]1[C@H](O)[C@@H](OCc2ccccc2)[C@H](O)CN1CCCCCCCC", "values": [{"measurement": "pIC50", "setting": "Acetylcholinesterase [5]", "value": 4.66}, {"measurement": "pIC50", "setting": "Acetylcholinesterase [6]", "value": 4.20}, {"measurement": "pIC50", "setting": "Cholinesterase [4]", "value": 5.52}]}, {"smiles": "c1ccc(COC[C@H]2NC[C@H](OCc3ccccc3)[C@@H](OCc3ccccc3)[C@@H]2OCc2ccccc2)cc1", "values": [{"measurement": "pIC50", "setting": "Acetylcholinesterase [5]", "value": 4.22}, {"measurement": "pIC50", "setting": "Acetylcholinesterase [6]", "value": 5.52}, {"measurement": "pIC50", "setting": "Cholinesterase [4]", "value": 5.70}]}, {"smiles": "C=CC[C@@H]1[C@H](O)[C@@H](O)[C@H](O)CN1CCCCCCCC", "values": [{"measurement": "inhibition", "setting": "Acetylcholinesterase [1]", "value": "< 50", "unit": "%"}, {"measurement": "inhibition", "setting": "[2]", "value": "< 50", "unit": "%"}, {"measurement": "pIC50", "setting": "Cholinesterase [4]", "value": 3.79}]}, {"smiles": "CCCCCCCCO[C@H]1[C@H](O)[C@@H](O)CN(CCCCCCCC)[C@@H]1CO", "values": [{"measurement": "inhibition", "setting": "Acetylcholinesterase [1]", "value": "inactive"}, {"measurement": "inhibition", "setting": "[2]", "value": "inactive"}, {"measurement": "inhibition", "setting": "Cholinesterase [3]", "value": "inactive"}]}, {"smiles": "CCC[C@@H]1NC[C@@H](O)[C@H](O)[C@H]1O", "values": [{"measurement": "inhibition", "setting": "Acetylcholinesterase [1]", "value": "< 50", "unit": "%"}, {"measurement": "inhibition", "setting": "[2]", "value": "< 50", "unit": "%"}, {"measurement": "pIC50", "setting": "Cholinesterase [4]", "value": 3.68}]}, {"smiles": "CCCCCCCCO[C@H]1CN(CCCCCCCC)[C@H](CO)[C@H](O)[C@@H]1O", "values": [{"measurement": "inhibition", "setting": "Acetylcholinesterase [1]", "value": "inactive"}, {"measurement": "inhibition", "setting": "[2]", "value": "inactive"}, {"measurement": "inhibition", "setting": "Cholinesterase [3]", "value": "inactive"}]}, {"smiles": "O[C@@H]1[C@@H](O)[C@@H](Cc2cn(CCC(c3ccccc3)c3ccccc3)nn2)NC[C@H]1O", "values": [{"measurement": "inhibition", "setting": "Acetylcholinesterase [1]", "value": "< 50", "unit": "%"}, {"measurement": "inhibition", "setting": "[2]", "value": "< 50", "unit": "%"}, {"measurement": "pIC50", "setting": "Cholinesterase [4]", "value": 4.82}]}, {"smiles": "O=C1N[C@H](COCc2ccccc2)[C@@H](OCc2ccccc2)[C@H](OCc2ccccc2)[C@H]1OCc1ccccc1", "values": [{"measurement": "pIC50", "setting": "Acetylcholinesterase [5]", "value": 4.34}, {"measurement": "pIC50", "setting": "Acetylcholinesterase [6]", "value": 5.70}, {"measurement": "pIC50", "setting": "Cholinesterase [4]", "value": 5.40}]}, {"smiles": "CCCCCC[C@H]1N[C@@H](CO)[C@@H](O)[C@H](O)[C@H]1O", "values": [{"measurement": "inhibition", "setting": "Acetylcholinesterase [1]", "value": "inactive"}, {"measurement": "inhibition", "setting": "[2]", "value": "inactive"}, {"measurement": "inhibition", "setting": "Cholinesterase [3]", "value": "inactive"}]}, {"smiles": "CCCCCCCCCCn1cc(C[C@H]2NC[C@@H](O)[C@H](O)[C@H]2O)nn1", "values": [{"measurement": "inhibition", "setting": "Acetylcholinesterase [1]", "value": "inactive"}, {"measurement": "inhibition", "setting": "[2]", "value": "inactive"}, {"measurement": "inhibition", "setting": "Cholinesterase [3]", "value": "inactive"}]}]}
